This is an account of results in patent US20080275018A1, “ANTIBACTERIAL AMIDE-MACROCYCLES V” (AiCuris GmbH & Co. KG, priority 2005, published 2008).

The test system of one test is E. faecium L4001. Kind of test: Minimum inhibitory concentration (MIC), E. faecium L4001. Format: cell-based, Enterococcus faecium. The conditions noted are these: E. faecium L4001; 10% FCS in test medium. On the procedure:
The minimum inhibitory concentration (MIC) is the minimum concentration of an antibiotic with which the growth of a test microbe is inhibited over 18-24 h. The inhibitor concentration can in these cases be determined by standard microbiological methods (see, for example, The National Committee for Clinical Laboratory Standards. Methods for dilution antimicrobial susceptibility tests for bacteria that grow aerobically; approved standard-fifth edition. NCCLS document M7-A5 [ISBN 1-56238-394-9]. NCCLS, 940 West Valley Road, Suite 1400, Wayne, Pa. 19087-1898 USA, 2000). The MIC of the compounds of the invention is determined in the liquid dilution test on the 96-well microtiter plate scale. The bacterial microbes are cultivated in a minimal medium (18.5 mM Na2HPO4, 5.7 mM KH2PO4, 9.3 mM NH4Cl, 2.8 mM MgSO4, 17.1 mM NaCl, 0.033 μg/ml thiamine hydrochloride, 1.2 μg/ml nicotinic acid, 0.003 μg/ml biotin, 1% glucose, 25 μg/ml of each proteinogenic amino acid with the exception of phenylalanine; [H.-P. Kroll; unpublished]) with the addition of 0.4% BH broth (test medium). In the case of Enterococcus faecium L4001, heat-inactivated fetal calf serum (FCS; GibcoBRL, Germany) is added to the test medium in a final concentration of 10%. Overnight cultures of the test microbes are diluted to an OD578 of 0.001 (to 0.01 in the case of enterococci) in fresh test medium, and incubated 1:1 with dilutions of the test substances (1:2 dilution steps) in test medium ([…]). The cultures are incubated at 37° C. for 18-24 hours; enterococci in the presence of 5% CO2.
The lowest substance concentration in each case at which no visible bacterial growth occurs any longer is defined as the MIC.

Test [1] concerns the target S. aureus 133 Translation. In words: S. aureus in vitro transcription-translation assay (firefly luciferase, S30 extract). Format: biochemical. The note with it: 50% inhibition of the translation of firefly luciferase. The source says: For the construction of a reporter plasmid which can be used in an in vitro transcription-translation assay from S. aureus the plasmid pBESTluc (Promega Corporation, USA) is used. The E. coli tac promoter present in this plasmid in front of the firefly luciferase is replaced by the capA1 promoter with corresponding Shine-Dalgarno sequence from S. aureus. The primers CAPFor 5′-[…]-[…] GCCA-3′ and CAPRev 5′-[…]-3′ are used for this. The primer CAPFor contains the capA1 promoter, the ribosome binding site and the 5′ region of the luciferase gene. After PCR using pBESTluc as template it is possible to isolate a PCR product which contains the firefly luciferase gene with the fused capA1 promoter. This is, after restriction with ClaI and HindIII, ligated into the vector pBESTluc which has likewise been digested with ClaI and HindIII. The resulting plasmid pla can be replicated in E. coli and be used as template in the S. aureus in vitro transcription-translation test.
Six litres of BHI medium are inoculated with a 250 ml overnight culture of an S. aureus Strain and allowed to grow at 37° C. until the OD600 nm is 2-4. The cells are harvested by centrifugation and washed in 500 ml of cold buffer A (10 mM Tris acetate, pH 8.0, 14 mM magnesium acetate, 1 mM DTT, 1 M KCl). After renewed centrifugation, the cells are washed in 250 ml of cold buffer A with 50 mM KCl, and the resulting pellets are frozen at −20° C. for 60 min. The pellets are thawed on ice in 30 to 60 min and taken up to a total volume of 99 ml in buffer B (10 mM Tris acetate, pH 8.0, 20 mM magnesium acetate, 1 mM DTT, 50 mM KCl). 1.5 ml portions of lysostaphin (0.8 mg/ml) in buffer B are provided in 3 precooled centrifuge cups and each mixed with 33 ml of the cell suspension. The samples are incubated at 37° C., shaking occasionally, for 45 to 60 min, before 150 μl of a 0.5 M DTT solution are added. The lysed cells are centrifuged at 30 000×g and 4° C. for 30 min. The cell pellet is taken up in buffer B and then centrifuged again under the same conditions, and the collected supernatants are combined. The supernatants are centrifuged again under the same conditions, and 0.25 volumes of buffer C (670 mM Tris acetate, pH 8.0, 20 mM magnesium acetate, 7 mM Na3 phosphoenolpyruvate, 7 mM DTT, 5.5 mM ATP, 70 μM amino acids (complete from Promega), 75 μg of pyruvate kinase (Sigma, Germany)/ml are added to the upper ⅔ of the supernatant. The samples are incubated at 37° C. for 30 min. The supernatants are dialysed against 2 l of dialysis buffer (10 mM Tris acetate, pH 8.0, 14 mM magnesium acetate, 1 mM DTT, 60 mM potassium acetate) in a dialysis tube with a 3500 Da cut-off with one buffer change at 4° C. overnight. The dialysate is concentrated to a protein concentration of about 10 mg/ml by
covering the dialysis tube with cold PEG 8000 powder (Sigma, Germany) at 4° C. The S30 extracts can be stored in aliquots at −70° C.
The inhibition of protein biosynthesis of the compounds can be shown in an in vitro transcription-translation assay. The assay is based on the cell-free transcription and translation of firefly luciferase using the reporter plasmid pla as template and cell-free S30 extracts obtained from S. aureus. The activity of the resulting luciferase can be detected by luminescence measurement.
The amount of S30 extract or plasmid pla to be employed must be tested anew for each preparation in order to ensure an optimal concentration in the test. […] of the substance to be tested, dissolved in 5% DMSO, are introduced into an MTP. Then […] of a suitably concentrated plasmid solution pla are added. […]

For the compound `NC[C@H](O)C[C@@H]1NC(=O)[C@@H](N)Cc2cc(ccc2O)-c2ccc(O)c(c2)C[C@@H](C(=O)O)NC1=O` [Biphenomycin B, biphenomycin B, reference compound], the “MIC E. faecium L4001” value in the test with E. faecium L4001 is 0.5 μ/ml. Besides, the IC50 in test [1] stood at 1.5 µM.
